ChEMBL document CHEMBL3400135, “Design, synthesis and biological evaluation of novel homocamptothecin analogues as potent antitumor agents” (Bioorg Med Chem, 2015)

Legend:
HT-29 [1] = test: Antitumor activity against human HT-29 cells xenografted in mouse assessed as tumor volume at 3 mg/kg, iv dosed three times per week to the end of treatment measured on day 10 (reference value: 386 +/- 77 mm3); format: functional
HT-29 [2] = test: Antitumor activity against human HT-29 cells xenografted in mouse assessed as tumor volume at 3 mg/kg, iv dosed three times per week to the end of treatment measured on day 14 (reference value: 677 +/- 115 mm3); format: functional
HT-29 [3] = test: Antitumor activity against human HT-29 cells xenografted in mouse assessed as tumor volume at 3 mg/kg, iv dosed three times per week to the end of treatment measured on day 17 (reference value: 807 +/- 197 mm3); format: functional
HT-29 [4] = test: Antitumor activity against human HT-29 cells xenografted in mouse assessed as tumor volume at 3 mg/kg, iv dosed three times per week to the end of treatment measured on day 21 (reference value: 1272+/- 273 mm3); format: functional
HT-29 [5] = test: Antitumor activity against human HT-29 cells xenografted in mouse assessed as tumor volume at 0.5 mg/kg, iv dosed three times per week to the end of treatment measured on day 3 (reference value: 168 +/- 46 mm3); format: functional
HT-29 [6] = test: Antitumor activity against human HT-29 cells xenografted in mouse assessed as tumor volume at 0.5 mg/kg, iv dosed three times per week to the end of treatment measured on day 7 (reference value: 229 +/- 57 mm3); format: functional
HT-29 [7] = test: Antitumor activity against human HT-29 cells xenografted in mouse assessed as tumor volume at 0.5 mg/kg, iv dosed three times per week to the end of treatment measured on day 10 (reference value: 386 +/- 77 mm3); format: functional
HT-29 [8] = test: Antitumor activity against human HT-29 cells xenografted in mouse assessed as tumor volume at 0.5 mg/kg, iv dosed three times per week to the end of treatment measured on day 14 (reference value: 677 +/- 115 mm3); format: functional
HT-29 [9] = test: Antitumor activity against human HT-29 cells xenografted in mouse assessed as tumor volume at 0.5 mg/kg, iv dosed three times per week to the end of treatment measured on day 17 (reference value: 807 +/- 197 mm3); format: functional
HT-29 [10] = test: Antitumor activity against human HT-29 cells xenografted in mouse assessed as tumor volume at 0.5 mg/kg, iv dosed three times per week to the end of treatment measured on day 21 (reference value: 1272+/- 273 mm3); format: functional
Mus musculus [11] = test: Toxicity in human HT-29 cells xenografted mouse assessed as body weight level at 3 mg/kg, iv dosed three times per week to the end of treatment measured on day 3 (reference value: 20.7 +/- 1.2 g); format: organism-based; set-up: dose 3 mg/kg, route intravenous; settings: in vivo
Mus musculus [12] = test: Toxicity in human HT-29 cells xenografted mouse assessed as body weight level at 3 mg/kg, iv dosed three times per week to the end of treatment measured on day 7 (reference value: 21.7 +/- 1 g); format: organism-based; set-up: dose 3 mg/kg, route intravenous; settings: in vivo
Mus musculus [13] = test: Toxicity in human HT-29 cells xenografted mouse assessed as body weight level at 3 mg/kg, iv dosed three times per week to the end of treatment measured on day 10 (reference value: 22.4 +/- 1.3 g); format: organism-based; set-up: dose 3 mg/kg, route intravenous; settings: in vivo
Mus musculus [14] = test: Toxicity in human HT-29 cells xenografted mouse assessed as body weight level at 3 mg/kg, iv dosed three times per week to the end of treatment measured on day 14 (reference value: 22.7 +/- 1.5 g); format: organism-based; set-up: dose 3 mg/kg, route intravenous; settings: in vivo
Mus musculus [15] = test: Toxicity in human HT-29 cells xenografted mouse assessed as body weight level at 3 mg/kg, iv dosed three times per week to the end of treatment measured on day 17 (reference value: 22 +/- 1.7 g); format: organism-based; set-up: dose 3 mg/kg, route intravenous; settings: in vivo
Mus musculus [16] = test: Toxicity in human HT-29 cells xenografted mouse assessed as body weight level at 3 mg/kg, iv dosed three times per week to the end of treatment measured on day 21 (reference value: 21.2 +/- 1.6 g); format: organism-based; set-up: dose 3 mg/kg, route intravenous; settings: in vivo
Mus musculus [17] = test: Toxicity in human HT-29 cells xenografted mouse assessed as body weight level at 0.5 mg/kg, iv dosed three times per week to the end of treatment measured on day 3 (reference value: 20.7 +/- 1.2 g); format: organism-based; set-up: dose 0.5 mg/kg, route intravenous; settings: in vivo
Mus musculus [18] = test: Toxicity in human HT-29 cells xenografted mouse assessed as body weight level at 0.5 mg/kg, iv dosed three times per week to the end of treatment measured on day 7 (reference value: 21.7 +/- 1 g); format: organism-based; set-up: dose 0.5 mg/kg, route intravenous; settings: in vivo
Mus musculus [19] = test: Toxicity in human HT-29 cells xenografted mouse assessed as body weight level at 0.5 mg/kg, iv dosed three times per week to the end of treatment measured on day 10 (reference value: 22.4 +/- 1.3 g); format: organism-based; set-up: dose 0.5 mg/kg, route intravenous; settings: in vivo
Mus musculus [20] = test: Toxicity in human HT-29 cells xenografted mouse assessed as body weight level at 0.5 mg/kg, iv dosed three times per week to the end of treatment measured on day 14 (reference value: 22.7 +/- 1.5 g); format: organism-based; set-up: dose 0.5 mg/kg, route intravenous; settings: in vivo
Mus musculus [21] = test: Toxicity in human HT-29 cells xenografted mouse assessed as body weight level at 0.5 mg/kg, iv dosed three times per week to the end of treatment measured on day 17 (reference value: 22 +/- 1.7 g); format: organism-based; set-up: dose 0.5 mg/kg, route intravenous; settings: in vivo
Mus musculus [22] = test: Toxicity in human HT-29 cells xenografted mouse assessed as body weight level at 0.5 mg/kg, iv dosed three times per week to the end of treatment measured on day 21 (reference value: 21.2 +/- 1.6 g); format: organism-based; set-up: dose 0.5 mg/kg, route intravenous; settings: in vivo
[23] = Cytotoxicity against human HCT116 cells after 72 hrs by sulforhodamine B assay; format: functional, cell-based, HCT-116; settings: hct-116
HT-29 [24] = test: Cytotoxicity against human HT-29 cells after 72 hrs by sulforhodamine B assay; format: functional, cell-based; settings: ht-29
HCT-116 = test: Potency index, ratio of IC50 for SN38 to IC50 for compound against human HCT116 cells after 72 hrs by sulforhodamine B assay; format: functional
[25] = Stability in pH 7.4 PBS buffer assessed as formation of carboxylate forms at 1 uM incubated at 37 degC by HPLC method; format: physicochemical; settings: pH 7.4, 1 µM
[26] = Stability in human plasma assessed as lactone moieties level at 1 uM incubated at 37 degC after 3 hrs by HPLC method; format: ADME, cell-free; settings: read-out: Stability
[27] = Solubility in water; format: physicochemical
Mus musculus [28] = test: Toxicity in human HT-29 cells xenografted mouse assessed as lethal toxicity at 3 mg/kg, iv dosed three times per week to the end of treatment; format: organism-based; set-up: dose 3 mg/kg, route intravenous; settings: in vivo
Mus musculus [29] = test: Toxicity in human HT-29 cells xenografted mouse assessed as lethal toxicity at 0.5 mg/kg, iv dosed three times per week to the end of treatment; format: organism-based; set-up: dose 0.5 mg/kg, route intravenous; settings: in vivo
Mus musculus [30] = test: Toxicity in human HT-29 cells xenografted mouse assessed as body weight change at 3 mg/kg, iv dosed three times per week to the end of treatment (reference value: 12.7%); format: organism-based; set-up: dose 3 mg/kg, route intravenous; settings: in vivo
HT-29 [31] = test: Antitumor activity against human HT-29 cells xenografted in mouse assessed as relative tumor increment rate at 3 mg/kg, iv dosed three times per week to the end of treatment relative to untreated control; format: functional
HT-29 [32] = test: Antitumor activity against human HT-29 cells xenografted in mouse assessed as relative tumor increment rate at 0.5 mg/kg, iv dosed three times per week to the end of treatment relative to untreated control; format: functional
Mus musculus [33] = test: Toxicity in human HT-29 cells xenografted mouse assessed as induction of overt toxic symptoms at 0.5 mg/kg, iv dosed three times per week to the end of treatment; format: organism-based; set-up: dose 0.5 mg/kg, route intravenous; settings: in vivo
Mus musculus [34] = test: Toxicity in human HT-29 cells xenografted mouse assessed as induction of overt toxic symptoms at 3 mg/kg, iv dosed three times per week to the end of treatment; format: organism-based; set-up: dose 3 mg/kg, route intravenous; settings: in vivo
Mus musculus [35] = test: Toxicity in human HT-29 cells xenografted mouse assessed as induction of anaphylactic reaction at 0.5 mg/kg, iv dosed three times per week to the end of treatment; format: organism-based; set-up: dose 0.5 mg/kg, route intravenous; settings: in vivo
Mus musculus [36] = test: Toxicity in human HT-29 cells xenografted mouse assessed as induction of anaphylactic reaction at 3 mg/kg, iv dosed three times per week to the end of treatment; format: organism-based; set-up: dose 3 mg/kg, route intravenous; settings: in vivo
HT-29 [37] = test: Antitumor activity against human HT-29 cells xenografted in mouse assessed as tumor volume at 3 mg/kg, iv dosed three times per week to the end of treatment measured on day 3 (reference value: 168 +/- 46 mm3); format: functional
HT-29 [38] = test: Antitumor activity against human HT-29 cells xenografted in mouse assessed as tumor volume at 3 mg/kg, iv dosed three times per week to the end of treatment measured on day 7 (reference value: 229 +/- 57 mm3); format: functional

CC[C@]1(O)c2cc3n(c(=O)c2COC(=O)[C@H]1OC)Cc1c-3nc2cc3c(cc2c1-c1ccncc1)OCO3.Cl
Activity (HT-29 [1]): 52 mm3
Activity (HT-29 [2]): 51 mm3
Activity (HT-29 [3]): 15 mm3
Activity (HT-29 [4]): 0 mm3
Activity (HT-29 [5]): 156 mm3
Activity (HT-29 [6]): 187 mm3
Activity (HT-29 [7]): 262 mm3
Activity (HT-29 [8]): 327 mm3
Activity (HT-29 [9]): 380 mm3
Activity (HT-29 [10]): 550 mm3
Activity (Mus musculus [11]): 19.8 g
Activity (Mus musculus [12]): 18.6 g
Activity (Mus musculus [13]): 16.8 g
Activity (Mus musculus [14]): 18.1 g
Activity (Mus musculus [15]): 18.4 g
Activity (Mus musculus [16]): 18.7 g
Activity (Mus musculus [17]): 20.5 g
Activity (Mus musculus [18]): 21.4 g
Activity (Mus musculus [19]): 22 g
Activity (Mus musculus [20]): 22.5 g
Activity (Mus musculus [21]): 22.2 g
Activity (Mus musculus [22]): 21.3 g
IC50 [23]: 0.628 nM
IC50 (HT-29 [24]): 3.41 nM
Ratio IC50 (HCT-116): 20
Stability [25]: Stable
remaining at 3 h, 1 µM [26]: 55%
solubility [27]: 1200 µg/mL
Activity (Mus musculus [28]): Non-toxic
Activity (Mus musculus [29]): Non-toxic
Activity (Mus musculus [30]): -2.6%
T/C (HT-29 [31]): 0%
T/C (HT-29 [32]): 42.84%
Activity (Mus musculus [33]): Non-toxic
Activity (Mus musculus [34]): Non-toxic
Activity (Mus musculus [35]): Non-toxic
Activity (Mus musculus [36]): Non-toxic
Activity (HT-29 [37]): 124 mm3
Activity (HT-29 [38]): 93 mm3
